This note sets out measurements from US20230027854A1, “ISOXAZOLE DERIVATIVES TARGETING TACC3 AS ANTICANCER AGENTS” (A2A Pharmaceuticals, inc., priority 2019, published 2023).

Some results are limits rather than exact numbers.

The first assay has as its system JIMT-1 cells. The experiment in a line: JIMT-1 cell growth inhibition / cell viability (SRB assay). The assay is classed as cell-based. The settings on record: Homo sapiens; JIMT-1 cells; read-out: IC50. Here is the method: The ability of the compounds of the present disclosure to treat TACC3-mediated cancers, or associated symptoms or complications thereof, was determined using the following procedures. The compounds of the present disclosure were tested for their activity against cell death induction using a JIMT-1 cell line, which was a cell line having high level of TACC3. The concentration of each compound that was required for half-maximal inhibition of cell proliferation was calculated by a GraphPad Prism (GraphPad Software).
On to `COc1ccc(-c2cc(Nc3ccnc(N4CCOCC4)n3)on2)cc1OC` [Compound 24, 3-(3,4-dimethoxyphenyl)-N-(2-morpholinopyrimidin-4-yl)isoxazol-5-amine], for which the concentration for half-maximal inhibition (IC50) is 730 nM.
On to `c1cc(Nc2cc(-c3ccc4c(c3)OCO4)no2)nc(N2CCOCC2)n1` [Compound 26, 3-(benzo[d][1,3]dioxol-5-yl)-N-(2-morpholinopyrimidin-4-yl)isoxazol-5-amine], for which the IC50 amounted to 870 nM.
`COc1ccc(-c2cc(Nc3ccnc(N4CCOCC4)n3)on2)cn1` [Compound 27, 3-(6-methoxypyridin-3-yl)-N-(2-morpholinopyrimidin-4-yl)isoxazol-5-amine]: the IC50 came out at 7300 nM.
With `Oc1ccc(-c2cc(Nc3ccnc(N4CCOCC4)n3)on2)cc1` [Compound 30, 4-(5-((2-morpholinopyrimidin-4-yl)amino)isoxazol-3-yl)phenol], the IC50 is greater than 10000 nM.
Regarding `c1ccc(COc2ccc(-c3cc(Nc4ccnc(N5CCOCC5)n4)on3)cc2)cc1` [Compound 32, 3-(4-(benzyloxy)phenyl)-N-(2-morpholinopyrimidin-4-yl)isoxazol-5-amine], the IC50 is greater than 10000 nM.
Regarding `COc1ccc(-c2cc(Nc3ccnc(N4C[C@@H](C)O[C@@H](C)C4)n3)on2)cc1` [Compound 33, N-(2-((2R,6S)-2,6-dimethylmorpholino)pyrimidin-4-yl)-3-(4-methoxyphenyl)isoxazol-5-amine], the IC50 turned out to be 230 nM.
`COc1ccc(-c2cc(Nc3ccnc(N4C5CCC4COC5)n3)on2)cc1` [Compound 34, N-(2-(3-oxa-8-azabicyclo[3.2.1]octan-8-yl)pyrimidin-4-yl)-3-(4-methoxyphenyl)isoxazol-5-amine]: the IC50 stood at 160 nM.
Still for that read-out and setting: the result for `COc1ccc(-c2cc(Nc3ccnc(N4CC5CCC(C4)O5)n3)on2)cc1` [Compound 35, N-(2-(8-oxa-3-azabicyclo[3.2.1]octan-3-yl)pyrimidin-4-yl)-3-(4-methoxyphenyl)isoxazol-5-amine] reads 3090 nM.
For the molecule `COc1ccc(-c2cc(Nc3ccnc(N4C[C@@H]5C[C@H]4CO5)n3)on2)cc1` [Compound 36, N-(2-((1S,4S)-2-oxa-5-azabicyclo[2.2.1]heptan-5-yl)pyrimidin-4-yl)-3-(4-methoxyphenyl)isoxazol-5-amine], the IC50 came out at 2020 nM.
`COc1ccc(-c2cc(Nc3ccnc(N4C[C@H]5C[C@@H]4CO5)n3)on2)cc1` [Compound 37, N-(2-((1R,4R)-2-oxa-5-azabicyclo[2.2.1]heptan-5-yl)pyrimidin-4-yl)-3-(4-methoxyphenyl)isoxazol-5-amine]: the IC50 came out at 480 nM.
As for `COc1ccc(-c2cc(Nc3ccnc(N4CCC(F)CC4)n3)on2)cc1` [Compound 38, N-(2-(4-fluoropiperidin-1-yl)pyrimidin-4-yl)-3-(4-methoxyphenyl)isoxazol-5-amine], the IC50 came to 130 nM.
Regarding `COc1ccc(-c2cc(Nc3ccnc(N4CCC(F)(F)CC4)n3)on2)cc1` [Compound 39, N-(2-(4,4-difluoropiperidin-1-yl)pyrimidin-4-yl)-3-(4-methoxyphenyl)isoxazol-5-amine], the IC50 was 370 nM.
In the case of `COc1ccc(-c2cc(Nc3ccnc(N4CCSCC4)n3)on2)cc1` [Compound 40, 3-(4-methoxyphenyl)-N-(2-thiomorpholinopyrimidin-4-yl)isoxazol-5-amine], the IC50 is 113 nM.
The same measure, in the same setting: the result for `COc1ccc(-c2cc(Nc3ccnc(N4CCS(=O)(=O)CC4)n3)on2)cc1` [Compound 41, 4-(4-((3-(4-methoxyphenyl)isoxazol-5-yl)amino)pyrimidin-2-yl)thiomorpholine 1,1-dioxide] reads greater than 10000 nM.
`COc1ccc(-c2cc(Nc3ccnc(N4CCCCC4)n3)on2)cc1` [Compound 42, 3-(4-methoxyphenyl)-N-(2-(piperidin-1-yl)pyrimidin-4-yl)isoxazol-5-amine]: the IC50 was 116 nM.
With `COc1ccc(-c2cc(Nc3ccnc(N4CCC(C)CC4)n3)on2)cc1` [Compound 43, 3-(4-methoxyphenyl)-N-(2-(4-methylpiperidin-1-yl)pyrimidin-4-yl)isoxazol-5-amine], the IC50 worked out at 204 nM.
Turning to `COc1ccc(-c2cc(Nc3ccnc(N4CCC(C(F)(F)F)CC4)n3)on2)cc1` [Compound 44, 3-(4-methoxyphenyl)-N-(2-(4-(trifluoromethyl)piperidin-1-yl)pyrimidin-4-yl)isoxazol-5-amine], the IC50 came out at 56 nM.
For the molecule `COc1ccc(-c2cc(Nc3ccnc(N4CCCC4)n3)on2)cc1` [Compound 45, 3-(4-methoxyphenyl)-N-(2-(pyrrolidin-1-yl)pyrimidin-4-yl)isoxazol-5-amine], the IC50 turned out to be 105 nM.
On the same count and under the same terms, for `COc1ccc(-c2cc(Nc3ccnc(N4CCC(CCO)CC4)n3)on2)cc1` [Compound 46, 2-(1-(4-((3-(4-methoxyphenyl)isoxazol-5-yl)amino)pyrimidin-2-yl)piperidin-4-yl)ethan-1-ol] the value was 3970 nM.
Same read-out and setting: the result for `COc1ccc(-c2cc(Nc3ccnc(N4CCN(CCO)CC4)n3)on2)cc1` [Compound 47, 2-(4-(4-((3-(4-methoxyphenyl)isoxazol-5-yl)amino)pyrimidin-2-yl)piperazin-1-yl)ethan-1-ol] reads greater than 10000 nM.
In the case of `COc1ccc(-c2cc(Nc3ccnc(N4CCN(C)CC4)n3)on2)cc1` [Compound 48, 3-(4-methoxyphenyl)-N-(2-(4-methylpiperazin-1-yl)pyrimidin-4-yl)isoxazol-5-amine], the IC50 is 1560 nM.
For the molecule `COc1ccc(-c2cc(Nc3ccnc(N4CCNCC4)n3)on2)cc1` [Compound 49, 3-(4-methoxyphenyl)-N-(2-(piperazin-1-yl)pyrimidin-4-yl)isoxazol-5-amine], the 50% inhibitory concentration (IC50) is greater than 10000 nM.
For `CCOC(=O)C1CCN(c2nccc(Nc3cc(-c4ccc(OC)cc4)no3)n2)CC1` [Compound 50, Ethyl 1-(4-((3-(4-methoxyphenyl)isoxazol-5-yl)amino)pyrimidin-2-yl)piperidine-4-carboxylate], the concentration for half-maximal inhibition (IC50) was greater than 10000 nM.
Same read-out and setting: the result for `COc1ccc(-c2cc(Nc3ccnc(N4CCC(C(=O)O)CC4)n3)on2)cc1` [Compound 51, 1-(4-((3-(4-methoxyphenyl)isoxazol-5-yl)amino)pyrimidin-2-yl)piperidine-4-carboxylic acid] reads greater than 10000 nM.
Consider `COc1ccc(-c2cc(Nc3nc(N4CCC(F)CC4)ncc3Cl)on2)cc1` [Compound 59, N-(5-chloro-2-(4-fluoropiperidin-1-yl)pyrimidin-4-yl)-3-(4-methoxyphenyl)isoxazol-5-amine], for which the IC50 came to 800 nM.
For the molecule `COc1ccc(-c2cc(Nc3nc(N4CCC(F)CC4)ncc3F)on2)cc1` [Compound 60, N-(5-fluoro-2-(4-fluoropiperidin-1-yl)pyrimidin-4-yl)-3-(4-methoxyphenyl)isoxazol-5-amine], the IC50 stood at 540 nM.
The same measure, in the same setting: for `COc1ccc(-c2cc(Nc3cc(C)nc(N4CCC(F)CC4)n3)on2)cc1` [Compound 61, N-(2-(4-fluoropiperidin-1-yl)-6-methylpyrimidin-4-yl)-3-(4-methoxyphenyl)isoxazol-5-amine] the value was 1000 nM; for `COc1ccc(-c2cc(N(C)c3ccnc(N4CCOCC4)n3)on2)cc1` [Compound 63, 3-(4-methoxyphenyl)-N-methyl-N-(2-morpholinopyrimidin-4-yl)isoxazol-5-amine], 160 nM.
The same measure, in the same setting: for `CN(C)c1ccc(-c2cc(Nc3ccnc(N4CCC(F)CC4)n3)on2)cc1` [Compound 64, 3-(4-(dimethylamino)phenyl)-N-(2-(4-fluoropiperidin-1-yl)pyrimidin-4-yl)isoxazol-5-amine] the value was 157 nM; for `COc1ccc(-c2cc(Nc3ccnc(N4CCC(F)CC4)n3)on2)cc1F` [Compound 65, 3-(3-fluoro-4-methoxyphenyl)-N-(2-(4-fluoropiperidin-1-yl)pyrimidin-4-yl)isoxazol-5-amine], 145 nM.
Take `COc1ccc(-c2cc(Nc3ccnc(N4C5CCC4COC5)n3)on2)cc1F` [Compound 66, N-(2-(3-oxa-8-azabicyclo[3.2.1]octan-8-yl)pyrimidin-4-yl)-3-(3-fluoro-4-methoxyphenyl)isoxazol-5-amine]: the IC50 is 53 nM.
In the case of `COc1ccc(-c2cc(Nc3ccnc(N4CCCC4)n3)on2)cc1F` [Compound 67, 3-(3-fluoro-4-methoxyphenyl)-N-(2-(pyrrolidin-1-yl)pyrimidin-4-yl)isoxazol-5-amine], the half-inhibitory concentration (IC50) was determined as 49 nM.

A further assay deals with JIMT-1 cells. The experiment in a line: Western blot of mitotic arrest, DNA damage and apoptosis markers. The settings on record: 24 hours, dose response. The assay is classed as cell-based, human. On the procedure: JIMT-1, MDA-MB-436, MDA-MB-157 and BT-474 T-DM1R cell lines were tested with respect to their response to these three drugs. […] Although higher KHS101 doses was included, which were used by others (Campo & Breuer, 2018), an induction of these markers was only observed at very high doses.
Consider `CC(C)CNc1ccnc(NCc2csc(-c3ccccc3)n2)n1` [KHS101, reference compound], for which the “induction of mitotic arrest, DNA damage and apoptosis markers” value is recorded as “considerably higher doses”.
